Experimental data as given in patent US20130345215A1, “PYRAZOLOPYRIMIDONE AND PYRAZOLOPYRIDONE INHIBITORS OF TANKYRASE” (Genentech, Inc., priority 2012, published 2013).

System: Wnt stimulated TCF transcriptional activity, HEK293-TS 112 TCF reporter cell line
Assay: Tankyrase 1 Assay (Example 119): Wnt3A-stimulated TOPbrite TCF luciferase reporter
Type: cell-based
Conditions: Compounds I-59 to I-144, procedure in Example 119 (0.5 ug/mL Wnt3A, 16 hours); read-out: TNKS1 (IC50)
Procedure: Inhibition of the Wnt stimulated TCF transcriptional activity by tankyrase inhibitors was determined utilizing a HEK293-TS 112 TCF reporter cell line. A Wnt-responsive luciferase reporter named TOPbrite was constructed by cloning the enhancer element of Super8xTOPFlash containing eight TCF/LEF binding sites into the pGL4.28 vector (Promega) upstream of the minimal promoter element, and selecting for hygromycin B resistance (50 μg/ml). Cells were seeded into 384-well plates in the presence of 0.5 ug/mL of Wnt3A at a density of 20,000 cells per well in 25 ul of F:12 DMEM media supplemented with 10% FBS and 2 mM Glutamax. Cells seeded without the addition of Wnt3A were used as background signal. Compounds of various concentrations were added to cells and incubated at 37 degrees with 5% CO2 for 16 hours. The assay was terminated with the addition of Promega Dual Glo kit per manufacturer's instructions. A ratio of TOPbrite Firefly Luciferase and SV40 Renillla Luciferase was calculated and the background from the neutral wells was subtracted yielding the final normalized measurement of TCF transcriptional activity. Compound IC50s were determined by four-parameter curve fitting using GeneData software.

| Compound | IC50 |
| --- | --- |
| Cn1ncc2c(=O)[nH]c(N3CCN(c4c(F)cc(OC5COC5)cc4F)CC3)nc21 [Compound I-85, 6-[4-[2 6-difluoro-4-(oxetan-3-yloxy)phenyl]piperazin-1-yl]-1-methyl-5H-pyrazolo[3 4-d]pyrimidin-4-one] | 17.1 nM |
| O=c1[nH]c(N2CCN(c3c(F)cccc3F)CC2)nc2[nH]ncc12 [Compound I-80, 6-[4-(2 6-difluorophenyl)piperazin-1-yl]-1 5-dihydropyrazolo[3 4-d]pyrimidin-4-one] | 14 nM |
| Cn1ncc2c(=O)[nH]c(N3CCN(c4c(F)cc(OCCOP(=O)(O)O)cc4F)CC3)nc21 [Compound I-75, 2-[3 5-difluoro-4-[4-(1-methyl-4-oxo-5H-pyrazolo[3 4-d]pyrimidin-6-yl)piperazin-1-yl]phenoxy]ethyl dihydrogen phosphate] | 9.6 nM |
| Cc1c[nH]nc1C1CCN(c2nc3c(cnn3C)c(=O)[nH]2)CC1 [Compound I-115, 1-methyl-6-[4-(4-methyl-1H-pyrazol-3-yl)-1-piperidyl]-5H-pyrazolo[3 4-d]pyrimidin-4-one] | 107 nM |
| Cn1nccc1C1(C)CCN(c2nc3c(cnn3C)c(=O)[nH]2)CC1 [Compound I-96, 1-methyl-6-[4-methyl-4-(2-methylpyrazol-3-yl)-1-piperidyl)-5H-pyrazolo[3 4-d]pyrimidin-4-one] | 28.4 nM |
| Cn1nccc1CN1CCN(c2nc3c(cnn3C)c(=O)[nH]2)CC1 [Compound I-132, 1-methyl-6-[4-((2-methylpyrazol-3-yl)methyl]piperazin-1-yl]-5H-pyrazolo[3 4-d]pyrimidin-4-one] | 329 nM |
| Cn1cc(CN2CCN(c3nc4c(cnn4C)c(=O)[nH]3)CC2)cn1 [Compound I-134, 1-methyl-6-[4-[(1-methylpyrazol-4-yl)methyl]piperazin-1-yl]-5H-pyrazolo[3 4-d]pyrimidin-4-one] | 342 nM |
| Cn1ncc2c(=O)[nH]c(N3CCC(Cc4ccncc4)C3)nc21 (stereo not drawn) [Compound I-138, 1-methyl-6-[3-(4-pyridylmethyl)pyrrolidin-1-yl]-5H-pyrazolo[3 4-d]pyrimidin-4-one] | 536 nM |
| COCCOc1cc(F)c(C2(C#N)CCN(c3nc4c(cnn4C)c(=O)[nH]3)CC2)c(F)c1 [Compound I-86, 4-[2 6-difluoro-4-(2-methoxyethoxy)phenyl]-1-(1-methyl-4-oxo-5H-pyrazolo[3 4-d]pyrimidin-6-yl)piperidine-4-carbonitrile] | 18.5 nM |
| Cn1ncc2c(=O)[nH]c(N3CCC(Cc4ncccn4)C3)nc21 (stereo not drawn) [Compound I-133, 1-methyl-6-[3-(pyrimidin-2-ylmethyl)pyrrolidin-1-yl]-5H-pyrazolo[3 4-d]pyrimidin-4-one] | 337 nM |
| Cn1ncc2c(=O)[nH]c(N3CCC(S(=O)(=O)CC4CCCCC4)CC3)nc21 [Compound I-135, 6-[4-(cyclohexylmethylsulfonyl)-1-piperidyl]-1-methyl-5H-pyrazolo[3 4-d]pyrimidin-4-one] | 406 nM |
| Cn1ncc2c(=O)[nH]c(N3CCC(S(C)(=O)=O)CC3)nc21 [Compound I-141, 1-methyl-6-(4-methylsulfonyl-1-piperidyl)-5H-pyrazolo[3 4-d]pyrimidin-4-one] | 652 nM |
| CCS(=O)(=O)c1ccc(-c2nc3c(cnn3C)c(=O)[nH]2)cc1 [Compound I-107, 6-(4-ethylsulfonylphenyl)-1-methyl-5H-pyrazolo[3 4-d]pyrimidin-4-one] | 68.1 nM |
| COCCOc1cc(F)c(N2CCN(c3nc4c(cnn4CC(C)(C)O)c(=O)[nH]3)CC2)c(F)c1 [Compound I-143, 6-[4-[2 6-difluoro-4-(2-methoxyethoxy)phenyl]piperazin-1-yl]-1-(2-hydroxy-2-methyl-propyl)-5H-pyrazolo[3 4-d]pyrimidin-4-one] | 795 nM |
| Cn1ncc2c(=O)[nH]c(N3CCN(C4COC4)CC3)nc21 [Compound I-144, 1-methyl-6-[4-(oxetan-3-yl)piperazin-1-yl]-5H-pyrazolo[3 4-d]pyrimidin-4-one] | 830 nM |
| COCCOc1cc(F)c(N2CCN(c3nc4c(cnn4C4CCS(=O)(=O)CC4)c(=O)[nH]3)CC2)c(F)c1 [Compound I-128, 6-[4-[2 6-difluoro-4-(2-methoxyethoxy)phenyl]piperazin-1-yl]-1-(1 1-dioxothian-4-yl)-5H-pyrazolo[3 4-d]pyrimidin-4-one] | 268 nM |
| COCCOc1cc(F)c(N2CCN(c3nc4c(cnn4CC(C)O)c(=O)[nH]3)CC2)c(F)c1 (stereo not drawn) [Compound I-126, 6-[4-[2 6-difluoro-4-(2-methoxyethoxy)phenyl]piperazin-1-yl]-1-(2-hydroxypropyl)-5H-pyrazolo[3 4-d]pyrimidin-4-one] | 220 nM |
| CC(C)[C@H](N)C(=O)OCCOc1cc(F)c(N2CCN(c3nc4c(cnn4C)c(=O)[nH]3)CC2)c(F)c1 [Compound I-61, 2-[3 5-difluoro-4-[4-(1-methyl-4-oxo-5H-pyrazolo[3 4-d]pyrimidin-6-yl)piperazin-1-yl]phenoxy]ethyl (2S)-2-amino-3-methyl-butanoate] | 4.2 nM |
| Cn1ncc2c(=O)[nH]c(N3CCC(C)(c4ccn(CC(C)(C)O)n4)CC3)nc21 [Compound I-127, 6-[4-[1-(2-hydroxy-2-methyl-propyl)pyrazol-3-yl)-4-methyl-1-piperidyl]-1-methyl-5H-pyrazolo[3 4-d]pyrimidin-4-one] | 223 nM |
| Cn1ncc2c(=O)[nH]c(N3CCC(c4ccncc4)CC3)nc21 [Compound I-109, 1-methyl-6-[4-(4-pyridyl)-1-piperidyl)-5H-pyrazolo[3 4-d]pyrimidin-4-one] | 80.6 nM |
| Cn1ncc2c(=O)[nH]c(N3CCC(Cc4cccnc4)C3)nc21 (stereo not drawn) [Compound I-137, 1-methyl-6-[3-(3-pyridylmethyl)pyrrolidin-1-yl]-5H-pyrazolo[3 4-d]pyrimidin-4-one] | 490 nM |
| Cn1ncc2c(=O)[nH]c(N3CCN(c4c(F)cc(OCCN5CCCCC5)cc4F)CC3)nc21 [Compound I-62, 6-{4-[2,6-Difluoro-4-(2-piperidin-1-yl-ethoxy)-phenyl]-piperazin-1-yl}-1-methyl-1,5-dihydro-pyrazolo[3,4-d]pyrimidin-4-one] | 5 nM |
| Cn1ncc2c(=O)[nH]c(N3CCN(c4c(F)cc(O)cc4F)CC3)nc21 [Compound I-73, 6-[4-(2 6-difluoro-4-hydroxy-phenyl)piperazin-1-yl]-1-methyl-5H-pyrazolo[3 4-d]pyrimidin-4-one] | 8.8 nM |
| Cn1ncc2c(=O)[nH]c(N3CCC(c4n[nH]c5ncccc45)CC3)nc21 [Compound I-97, 1-methyl-6-[4-(1H-pyrazolo[3 4-b]pyridin-3-yl)-1-piperidyl]-5H-pyrazolo[3 4-d]pyrimidin-4-one] | 31.9 nM |
| Cn1cncc1C1CCN(c2nc3c(cnn3C)c(=O)[nH]2)C1 (stereo not drawn) [Compound I-114, 1-methyl-6-[3-(3-methylimidazol-4-yl)pyrrolidin-1-yl]-5H-pyrazolo[3 4-d]pyrimidin-4-one] | 90.3 nM |
| Cn1ncc2c(=O)[nH]c(N3CCN(c4c(F)cc(OC5CCS(=O)(=O)CC5)cc4F)CC3)nc21 [Compound I-70, 6-[4-[4-(1 1-dioxothian-4-yl)oxy-2 6-difluoro-phenyl]piperazin-1-yl]-1-methyl-5H-pyrazolo[3 4-d]pyrimidin-4-one] | 7.9 nM |
| Cn1ncc2c(=O)[nH]c(N3CCC(c4ccccc4)CC3)nc21 [Compound I-101, 1-methyl-6-(4-phenyl-1-piperidyl)-5H-pyrazolo[3 4-d]pyrimidin-4-one] | 46.2 nM |
